Assays:
IRAK4 = molecular target: T1, IRAK4 (Homo sapiens, UniProt Q9NWZ3); test: IRAK4 MSD degradation in OCI-LY10; assay type: cell-based; conditions: OCI-LY10 cells, 24 hrs, Meso Scale Discovery
T1 construct: endogenous in cells; host or cells: OCI-LY10
T1 sequence (Q9NWZ3 1-460): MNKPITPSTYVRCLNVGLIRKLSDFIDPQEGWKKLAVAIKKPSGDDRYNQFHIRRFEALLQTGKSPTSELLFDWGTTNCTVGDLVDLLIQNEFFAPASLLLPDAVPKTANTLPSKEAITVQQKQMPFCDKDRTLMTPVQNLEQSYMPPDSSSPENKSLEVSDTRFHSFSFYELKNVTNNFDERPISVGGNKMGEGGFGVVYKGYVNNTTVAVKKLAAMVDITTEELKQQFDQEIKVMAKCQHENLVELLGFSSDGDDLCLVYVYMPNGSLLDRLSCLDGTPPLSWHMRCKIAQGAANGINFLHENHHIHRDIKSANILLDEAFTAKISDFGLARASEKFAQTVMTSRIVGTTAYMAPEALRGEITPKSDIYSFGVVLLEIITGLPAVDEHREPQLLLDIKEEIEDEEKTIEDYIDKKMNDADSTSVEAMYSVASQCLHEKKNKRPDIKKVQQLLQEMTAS
In short: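 Remaining IRAK4 protein measured by Meso Scale Discovery electrochemiluminescence sandwich assay on lysates of OCI-LY10 cells. Cells were exposed for 4 to 24 hours (37° C., 5% CO2) to eight 1:3-diluted concentrations starting at 1 to 10 μM. DC50 derived by three-parameter logistic fitting.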

[1] = Rodent pharmacokinetics (rat PK); assay type: in vivo; conditions: po, dosed intravenously or orally by gavage, plasma, read-out: F % (bioavailability)
Method: All studies related to handling, care, and treatment of rats in the study were performed according to the guidelines approved by the Institutional Animal Care and Use Committee (IACUC). All rats had access to food and water ad libitum. Rats were dosed intravenously or orally by gavage. Whole blood was collected from the jugular vein immediately prior to dosing and at 5 (intravenously administered drugs only), 15, and 30 min and 1, 2, 4, 8, and 24 h after drug administration. After sampling, whole blood was centrifuged at 4,000×g for 5 min at 4° C. to obtain plasma.
The letter codes for bioavailability (F %) include: A (≥5%) and B (≤5%).

| DC50 (IRAK4) [nM] | bioavailability [1] [%] | SMILES |
| --- | --- | --- |
| < 10 | ≥ 5 | CN(C[C@H]1CC[C@H](c2nc3cc(C(C)(C)O)c(NC(=O)c4cccc(C(F)(F)F)n4)cc3s2)CC1)[C@@H]1CCN(c2cccc3c2n(C)c(=O)n3C2CCC(=O)NC2=O)C[C@@H]1F (single isomer, unassigned) [I-104] |
| < 10 | ≤ 5 | COc1cc2nn([C@H]3CC[C@H](CN4CC[C@H](c5cccc6c5n(C)c(=O)n6C5CCC(=O)NC5=O)C(F)(F)C4)CC3)cc2cc1NC(=O)c1cncc(C#N)c1 (single isomer, unassigned) [I-106] |
| < 10 | ≤ 5 | Cn1c(=O)n(C2CCC(=O)NC2=O)c2cccc([C@@H]3CCN(C[C@H]4CC[C@H](n5cc6cc(NC(=O)c7cncc(C(F)(F)F)n7)ccc6n5)CC4)C[C@H]3F)c21 (single isomer, unassigned) [I-112] |
| > 200 | ≤ 5 | COc1cc2nc([C@H]3CC[C@H](CN4CC[C@H](c5cccc6c5n(C)c(=O)n6C5CCC(=O)NC5=O)C(F)(F)C4)CC3)sc2cc1NC(=O)c1cncc(C#N)c1 (single isomer, unassigned) [I-140] |
| 10 to 100 | ≥ 5 | CN(C[C@H]1CC[C@H](c2nc3cc(C(C)(C)O)c(NC(=O)c4cncc(C(F)(F)F)c4)cc3s2)CC1)[C@@H]1CCN(c2cccc3c2n(C)c(=O)n3C2CCC(=O)NC2=O)C[C@H]1F (single isomer, unassigned) [I-159] |
| < 10 | ≥ 5 | CN(C[C@H]1CC[C@H](c2nc3cc(C(C)(C)O)c(NC(=O)c4cncc(C(F)(F)F)c4)cc3s2)CC1)[C@@H]1CCN(c2cccc3c2n(C)c(=O)n3C2CCC(=O)NC2=O)C[C@@H]1F (single isomer, unassigned) [I-161] |
| < 10 | ≥ 5 | CN(C[C@H]1CC[C@H](c2nc3cc(C(C)(C)O)c(NC(=O)c4cncc(C(F)(F)F)c4)cc3s2)CC1)[C@H]1CCN(c2cccc3c2n(C)c(=O)n3C2CCC(=O)NC2=O)C[C@H]1F (single isomer, unassigned) [I-162] |
| < 10 | ≥ 5 | Cn1c(=O)n(C2CCC(=O)NC2=O)c2cccc([C@H]3CCN(C[C@H]4CC[C@H](n5cc6cc(NC(=O)c7cncc(C(F)(F)F)n7)ccc6n5)CC4)CC3(F)F)c21 (single isomer, unassigned) [I-180] |
| < 10 | ≥ 5 | CN(C[C@H]1CC[C@H](c2nc3cc(C(C)(C)O)c(NC(=O)c4cccc(C(F)(F)F)c4)cc3s2)CC1)[C@@H]1CCN(c2cccc3c2n(C)c(=O)n3C2CCC(=O)NC2=O)C[C@@H]1F (single isomer, unassigned) [I-192] |
| 10 to 100 | ≥ 5 | CN(C[C@H]1CC[C@H](c2nc3cc(C(C)(C)O)c(NC(=O)c4cccc(C(F)(F)F)c4)cc3s2)CC1)[C@H]1CCN(c2cccc3c2n(C)c(=O)n3C2CCC(=O)NC2=O)C[C@H]1F (single isomer, unassigned) [I-199] |
| < 10 | ≤ 5 | Cn1c(=O)n(C2CCC(=O)NC2=O)c2cccc([C@H]3CCN(C[C@H]4CC[C@H](n5cc6cc(NC(=O)c7cncc(C(F)(F)F)n7)ncc6n5)CC4)CC3(F)F)c21 (single isomer, unassigned) [I-205] |
| 10 to 100 | ≥ 5 | Cn1c(=O)n(C2CCC(=O)NC2=O)c2cccc([C@@H]3CCN(C[C@H]4CC[C@H](n5cc6cc(NC(=O)c7cncc(C(F)(F)F)n7)ncc6n5)CC4)CC3(F)F)c21 (single isomer, unassigned) [I-206] |
| < 10 | ≤ 5 | Cn1c(=O)n([C@@H]2CCC(=O)NC2=O)c2cccc([C@@H]3CCN(C[C@H]4CC[C@H](n5cc6cc(NC(=O)c7cncc(C(F)(F)F)n7)ccc6n5)CC4)C[C@H]3F)c21 (single isomer, unassigned) [I-208] |
| < 10 | ≤ 5 | Cn1c(=O)n([C@H]2CCC(=O)NC2=O)c2cccc([C@@H]3CCN(C[C@H]4CC[C@H](n5cc6cc(NC(=O)c7cncc(C(F)(F)F)n7)ccc6n5)CC4)C[C@H]3F)c21 (single isomer, unassigned) [I-209] |
| < 10 | ≤ 5 | CN(C[C@H]1CC[C@H](c2cn3cc(NC(=O)c4cncc(C(F)(F)F)n4)ccc3n2)CC1)[C@@H]1CCN(c2cccc3c2n(C)c(=O)n3C2CCC(=O)NC2=O)C[C@@H]1F (single isomer, unassigned) [I-213] |
| < 10 | ≥ 5 | Cn1nc(C2CCC(=O)NC2=O)c2cccc([C@@H]3CCN(C[C@H]4CC[C@H](n5cc6cc(NC(=O)c7cncc(C#N)c7)c(C(C)(C)O)cc6n5)CC4)CC3(F)F)c21 (single isomer, unassigned) [I-222] |

| DC50 (IRAK4) [nM] | bioavailability [1] [%] | SMILES |
| --- | --- | --- |
| < 10 | ≤ 5 | Cn1nc(C2CCC(=O)NC2=O)c2cccc([C@H]3CCN(C[C@H]4CC[C@H](n5cc6cc(NC(=O)c7cncc(C#N)c7)c(C(C)(C)O)cc6n5)CC4)CC3(F)F)c21 (single isomer, unassigned) [I-223] |
| < 10 | ≤ 5 | Cn1c(=O)n(C2CCC(=O)NC2=O)c2ccc(F)c([C@@H]3CCN(C[C@H]4CC[C@H](n5cc6cc(NC(=O)c7cncc(C#N)c7)c(C(C)(C)O)cc6n5)CC4)CC3(F)F)c21 (single isomer, unassigned) [I-226] |
| < 10 | ≤ 5 | Cn1c(=O)n(C2CCC(=O)NC2=O)c2cccc([C@@H]3CCN(C[C@H]4CC[C@H](c5nc6cc(C(C)(C)O)c(NC(=O)c7cncc(C#N)c7)cc6s5)CC4)C[C@H]3F)c21 (single isomer, unassigned) [I-229] |
| < 10 | ≥ 5 | CN(C[C@H]1CC[C@H](c2nc3cc(C(C)(C)O)c(NC(=O)c4cccc(C(F)(F)F)n4)cc3s2)CC1)[C@@H]1CCN(c2cccc3c2n(C)c(=O)n3C2CCC(=O)NC2=O)C[C@H]1F (single isomer, unassigned) [I-238] |
| < 10 | ≤ 5 | COc1cc2nn([C@H]3CC[C@H](CN4CC[C@@H](c5cccc6c5n(C)c(=O)n6C5CCC(=O)NC5=O)C(F)(F)C4)CC3)cc2cc1NC(=O)c1cncc(C#N)c1 (single isomer, unassigned) [I-240] |
| < 10 | ≤ 5 | COc1cc2nn([C@H]3CC[C@H](CN4CC[C@@H](c5cccc6c(C7CCC(=O)NC7=O)nn(C)c56)[C@H](F)C4)CC3)cc2cc1NC(=O)c1cncc(C#N)c1 (single isomer, unassigned) [I-263] |
| < 10 | ≤ 5 | COc1cc2nn([C@H]3CC[C@H](CN4CC[C@H](c5cccc6c(C7CCC(=O)NC7=O)nn(C)c56)[C@@H](F)C4)CC3)cc2cc1NC(=O)c1cncc(C#N)c1 (single isomer, unassigned) [I-264] |
| < 10 | ≤ 5 | COc1cc2nn([C@H]3CC[C@H](CN4CC[C@H](c5cccc6c5c(C)nn6C5CCC(=O)NC5=O)[C@@H](F)C4)CC3)cc2cc1NC(=O)c1cncc(C#N)c1 (single isomer, unassigned) [I-266] |
| > 200 | ≤ 5 | COc1cc2nc([C@H]3CC[C@H](CN4CC[C@@H](c5cccc6c5n(C)c(=O)n6C5CCC(=O)NC5=O)C(F)(F)C4)CC3)sc2cc1NC(=O)c1cncc(C#N)c1 (single isomer, unassigned) [I-273] |
| < 10 | ≥ 5 | CN(C[C@H]1CC[C@H](n2cc(NC(=O)c3cnn4cccnc34)c(C(F)F)n2)CC1)[C@@H]1CCN(c2cccc3c2n(C)c(=O)n3C2CCC(=O)NC2=O)C[C@H]1F (single isomer, unassigned) [I-279] |
| < 10 | ≥ 5 | CN(C[C@H]1CC[C@H](n2cc(NC(=O)c3cnn4cccnc34)c(C(F)F)n2)CC1)[C@H]1CCN(c2cccc3c2n(C)c(=O)n3C2CCC(=O)NC2=O)C[C@@H]1F (single isomer, unassigned) [I-280] |
| < 10 | ≥ 5 | CN(C[C@H]1CC[C@H](n2cc(NC(=O)c3cnn4cccnc34)c(C(F)F)n2)CC1)[C@@H]1CCN(c2cccc3c2n(C)c(=O)n3C2CCC(=O)NC2=O)C[C@@H]1F (single isomer, unassigned) [I-281] |
| 10 to 100 | ≤ 5 | CN(C[C@H]1CC[C@H](c2cn3cc(NC(=O)c4cncc(C(F)(F)F)n4)ccc3n2)CC1)[C@@H]1CCN(c2cccc3c2n(C)c(=O)n3C2CCC(=O)NC2=O)C[C@H]1F (single isomer, unassigned) [I-293] |
| < 10 | ≤ 5 | CN(C[C@H]1CC[C@H](c2cn3cc(NC(=O)c4cncc(C(F)(F)F)n4)ccc3n2)CC1)[C@H]1CCN(c2cccc3c2n(C)c(=O)n3C2CCC(=O)NC2=O)C[C@@H]1F (single isomer, unassigned) [I-294] |
| 10 to 100 | ≥ 5 | CN(C[C@H]1CC[C@H](c2nc3cc(C(C)(C)O)c(NC(=O)c4cncc(C(F)(F)F)n4)cc3o2)CC1)[C@@H]1CCN(c2cccc3c2n(C)c(=O)n3C2CCC(=O)NC2=O)C[C@H]1F (single isomer, unassigned) [I-297] |

Source: patent US20250059164A1, “IRAK DEGRADERS AND USES THEREOF” (Kymera Therapeutics, Inc., priority 2023, published 2025)
